One compound from patent US10968183B2, “Small molecule FIEL1 inhibitor in inflammatory and fibrotic lung injury” (UNIVERSITY OF PITTSBURGH—OF THE COMMONWEALTH SYSTEM OF …, priority 2015, dated 2021) can be followed below.

One test has as its system KIAA0317 and PIAS4 mRNA. The test is described as follows: PIAS4 and KIAA0317 mRNA analysis (RT-qPCR). It counts as cell-based. Conditions: treatment for 18 h; FIG. 15G. Here is the method:
(§1) FIG. 15A. Diagram of the BC-1485 synthesis process. FIGS. 15B-15C. Docking studies of the lead compound, BC-1485, interacting with the FIEL1-HECT domain. FIG. 15D. MRC5 cells were treated with the compound at various doses; cells were also co-treated with TGFβ at 2 ng/ml. 18 h later, cells were collected and assayed for α-SMA expression. FIG. 15E. MRC5 cells were seeded in 35 mm glass bottom dishes before co-treatment with TGFβ at 2 ng/ml and BC-1480 or BC1485 at 5μM. FIG. 15F. PIAS4 protein half-life determination after BC-1480 or BC1485 treatment at 5μM for 18 h. FIG. 15G. PIAS4 and KIAA0317 mRNA analysis after BC1485 treatment for 18 h.
Total RNA was isolated and reverse transcription was performed followed by real-time quantitative PCR with SYBR Green qPCR mixture as described in Butler et al. J. Biol. Chem. 2010, […]: 6246-6258. All mutant PIAS4 and KIAA0317 plasmid constructs were generated using PCR-based approaches and appropriate primers and subcloned into a pcDNA3.1D/V5-HIS vector.
On the technique in general: Quantitative PCR measures a nucleic acid by following its amplification.

The test system of the next test is PIAS4. The test is described as follows: PIAS4 protein half-life study (cycloheximide) in MLE cells. Type of test: cell-based, murine. To be noted: compound 5 μM for 18 h; FIG. 15F.
From the text: FIG. 9A. PIAS4 protein half-life study in MLE cells transfected with Empty plasmid or Ubiquitin plasmid. FIG. 9B. PIAS4 protein half-life study with MG132 or Leupeptin. FIG. 9C. Immunoblots showing levels of PIAS4 proteins and V5 after ectopic FIEL1 or UBE3B plasmid expression. FIG. 9D. Immunoblots showing levels of FIEL1 proteins after ectopic FIEL1 plasmid expression in MLE, HeLa, and 293T cells. FIG. 9E. Immunoblots showing levels of PIAS4 proteins and V5 after ectopic FIEL1 plasmid expression in HeLa and 293T cells. FIG. 9F. MLE cells were transfected with an inducible control or FIEL1 plasmid under control of exogenous doxycycline. Cells were treated with doxycycline in a dose dependent manner. Cells were then collected and cell lysates were immunoblotted for FIEL1 and PIAS4. FIG. 9G. MRC5 cells were exposed to TGFβ for 24 h before being assayed for PIAS4 and FIEL1 protein half-lives.
as §1
MLE cells were cultured in Dulbecco's Modified Eagle Medium-F12 (Gibco) supplemented with 10% fetal bovine serum (DMEM-10). 293T cells were cultured in Dulbecco's Modified Eagle Medium (Gibco) supplemented with 10% fetal bovine serum (DMEM-10). MRC5 cells were cultured in Eagle's Minimum Essential Medium (Gibco) supplemented with 10% fetal bovine serum (EMEM-10). For protein expression in MLE cells, nucleofection was used following Amaxa's protocol. For protein overexpression in 293T cells, Fugene6HD transfection reagents were used following the manufacturer's protocol. […]

With `CC(NC(=O)c1ccc(NS(=O)(=O)c2ccc3[nH]c(=O)[nH]c3c2)cc1)C(=O)N(C)C` (stereo not drawn) [BC-1485], in the test with KIAA0317 and PIAS4 mRNA, the “KIAA0317 mRNA levels” value was “did not significantly alter” and the “PIAS4 mRNA levels” value was “did not significantly alter”. In the test with PIAS4, the PIAS4 protein half-life result is given as “stabilized PIAS4 by extending its half-life”.
